Results on 6 compounds are retold here after ChEMBL document CHEMBL4219051, “Cyclin-Dependent Kinase 8: A New Hope in Targeted Cancer Therapy?” (J Med Chem, 2018).

Test [1] deals with T1, CDK8/Cyclin C (Homo sapiens, UniProt P49336). Put plainly: Inhibition of CDK8/Cyclin-C (unknown origin) in presence of [gamma33P]ATP by radiometric method. Format: protein-complex assay.
A short description of test [2]: Growth inhibition of human MOLM6 cells by alamar blue assay. The class given is functional. In general terms: Resazurin is reduced to fluorescent resorufin, in cell work by metabolically active cells.
Test [3] is described as follows: Growth inhibition of human MOLM16 cells by alamar blue assay. Format: functional.
The next test concerns OCI-AML-3. Put plainly: Growth inhibition of human OCI-AML3 cells by alamar blue assay. The class given is functional.
Test [4] deals with Cyclin-C/Cyclin-dependent kinase 19 (Homo sapiens, UniProt Q9BWU1). Put plainly: Inhibition of CDK19/Cyclin-C (unknown origin) in presence of [gamma33P]ATP by radiometric method. The class given is protein-complex assay.
Test [5] is described as follows: Growth inhibition of human SKNO1 cells by alamar blue assay. Format: functional. Particulars: SKNO-1.
The subject of another test is KG-1. Put plainly: Growth inhibition of human KG1 cells by alamar blue assay. Format: functional.
Another test relates to OCI-AML2. Put plainly: Growth inhibition of human OCI-AML2 cells by alamar blue assay. The class given is functional.
For test [6], the system named is MV4-11. Put plainly: Growth inhibition of human MV4-11 cells by alamar blue assay. The class given is functional.
The next test relates to HL-60. Put plainly: Growth inhibition of human HL60 cells by alamar blue assay. The class given is functional.
The target in test [7] is Cyclin-dependent kinase 8/Cyclin-C (Mus musculus, UniProt Q8R3L8). Put plainly: Inhibition of CDK8/Cyclin-C in R848-stimulated mouse BMDC assessed as upregulation of IL-10 level. Format: cell-based.
Test [8] concerns the target Cyclin-dependent kinase 8 (Homo sapiens, UniProt P49336). Put plainly: Inhibition of CDK8 (unknown origin).
The target in test [9] is T2, Cyclin-dependent kinase 19 (Homo sapiens, UniProt Q9BWU1). Put plainly: Inhibition of CDK19 (unknown origin).
Test [10] concerns HCT-116. Put plainly: Growth inhibition of human HCT116 cells after 7 days by CellTiter-Glo assay. The class given is functional. Particulars: HCT-116, 168 h. On the technique in general: Cellular ATP, detected with luciferase, serves as a proxy for viable cell number.
The test system of test [11] is SET-2. Put plainly: Growth inhibition of human SET2 cells after 10 days by CellTiter-Glo assay. Format: functional. The note with it: SET-2, 240 h.
Test [12] can be described thus: Growth inhibition of human UKE1 cells after 10 days by CellTiter-Glo assay. Format: functional. The note with it: UKE1, 240 h.
Test [13] has as its target T2, Cyclin-dependent kinase 19. The test is described as follows: Inhibition of CDK19 (unknown origin) in presence of [gamma33P]ATP by radiometric method.
The subject of the next test is MOLM-14. The test is described as follows: Growth inhibition of human MOLM14 cells after 10 days by CellTiter-Glo assay. The note with it: MOLM-14, 240 h. Format: functional.
The next test has as its system MEG-01. Put plainly: Growth inhibition of human MEG01 cells after 10 days by CellTiter-Glo assay. Format: functional. Particulars: MEG-01, 240 h.
In the next test the test system is RS4-11. The test is described as follows: Growth inhibition of human RS4:11 cells after 10 days by CellTiter-Glo assay. The class given is functional. The note with it: RS4-11, 240 h.
The test system of a further test is TF-1. Put plainly: Growth inhibition of human TF1 cells after 10 days by CellTiter-Glo assay. The note with it: TF-1, 240 h. Format: functional.
Test [14] is described as follows: Growth inhibition of human SKNO1 cells after 10 days by CellTiter-Glo assay. Format: functional. Particulars: SKNO-1, 240 h.
The target of test [15] is Rho-associated protein kinase 2 (Homo sapiens, UniProt O75116). The test is described as follows: Inhibition of ROCK2 (unknown origin).
Test [16] concerns SET-2. Put plainly: Antitumor activity against human SET2 cells xenografted in SCID Beige mouse assessed as tumor growth inhibition at 0.16 mg/kg, ip qd measured on day 33 relative to control. Format: functional. The note with it: SET-2, ip, 792 h, read-out: TGI.
In test [17] the target is Rho-associated protein kinase 1 (Homo sapiens, UniProt Q13464). Put plainly: Inhibition of ROCK1 (unknown origin).
In test [18] the test system is MV4-11. The test is described as follows: Growth inhibition of human MV4-11 cells after 10 days by CellTiter-Glo assay. The class given is functional. Particulars: MV4-11, 240 h.
Test [19] concerns the target Receptor-type tyrosine-protein kinase FLT3 (Homo sapiens) (UniProt P36888). The test is described as follows: Inhibition of FLT3 (unknown origin) at 1 uM relative to control.
Test [20] concerns HCT-116. Put plainly: cells. Particulars: Homo sapiens.
Test [21] concerns the target T1, CDK8/Cyclin C. The test is described as follows: Inhibition of CDK8/CCNC (unknown origin) using RBER-IRStide as substrate in presence of [gamma33P]ATP by radiometric method. The class given is protein-complex assay.
Test [22] has as its target Mitogen-activated protein kinase kinase kinase 19 (Homo sapiens) (UniProt Q56UN5). Put plainly: Inhibition of YSK4 (unknown origin) at 2 uM relative to control.
The target of test [23] is Mitogen-activated protein kinase kinase kinase kinase 2 (Homo sapiens) (UniProt Q12851). The test is described as follows: Inhibition of MAP4K2 (unknown origin) at 2 uM relative to control.
Sequence of Mitogen-activated protein kinase kinase kinase kinase 2 (Homo sapiens) (Q12851 whole entry): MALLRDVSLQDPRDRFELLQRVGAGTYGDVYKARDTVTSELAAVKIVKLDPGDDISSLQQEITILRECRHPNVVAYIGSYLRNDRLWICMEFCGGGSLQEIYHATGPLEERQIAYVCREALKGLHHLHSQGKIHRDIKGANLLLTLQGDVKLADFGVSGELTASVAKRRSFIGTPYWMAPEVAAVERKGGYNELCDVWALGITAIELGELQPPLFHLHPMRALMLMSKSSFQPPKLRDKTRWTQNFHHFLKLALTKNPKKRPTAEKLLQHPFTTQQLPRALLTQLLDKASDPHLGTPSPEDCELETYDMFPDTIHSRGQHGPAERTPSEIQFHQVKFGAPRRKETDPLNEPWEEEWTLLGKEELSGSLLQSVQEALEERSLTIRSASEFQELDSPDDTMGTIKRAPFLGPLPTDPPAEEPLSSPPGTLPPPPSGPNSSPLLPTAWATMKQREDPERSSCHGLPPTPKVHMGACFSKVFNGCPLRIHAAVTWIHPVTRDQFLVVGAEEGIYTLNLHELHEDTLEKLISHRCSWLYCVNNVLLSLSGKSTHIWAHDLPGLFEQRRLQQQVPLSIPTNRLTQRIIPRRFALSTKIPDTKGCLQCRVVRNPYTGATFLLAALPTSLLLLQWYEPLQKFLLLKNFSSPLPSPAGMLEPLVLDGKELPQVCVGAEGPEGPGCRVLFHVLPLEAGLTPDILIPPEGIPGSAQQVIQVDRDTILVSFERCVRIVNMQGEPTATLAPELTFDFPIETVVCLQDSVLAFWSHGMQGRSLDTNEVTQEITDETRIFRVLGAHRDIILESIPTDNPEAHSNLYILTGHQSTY

T2 sequence (Q9BWU1 whole entry): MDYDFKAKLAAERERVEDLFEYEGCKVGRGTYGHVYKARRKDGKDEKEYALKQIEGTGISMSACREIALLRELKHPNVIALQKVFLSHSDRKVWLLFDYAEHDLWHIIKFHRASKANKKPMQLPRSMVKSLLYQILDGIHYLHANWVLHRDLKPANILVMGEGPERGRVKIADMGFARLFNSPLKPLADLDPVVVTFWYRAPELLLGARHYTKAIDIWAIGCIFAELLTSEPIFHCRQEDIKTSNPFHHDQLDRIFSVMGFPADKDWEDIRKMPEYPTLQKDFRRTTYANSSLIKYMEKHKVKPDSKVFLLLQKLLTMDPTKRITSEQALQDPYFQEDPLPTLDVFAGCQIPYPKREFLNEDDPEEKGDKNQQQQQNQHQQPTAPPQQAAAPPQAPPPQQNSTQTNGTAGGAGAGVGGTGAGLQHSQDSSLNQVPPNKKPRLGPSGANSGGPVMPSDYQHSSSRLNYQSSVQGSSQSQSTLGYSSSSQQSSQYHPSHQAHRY
T1 sequence (P49336 whole entry): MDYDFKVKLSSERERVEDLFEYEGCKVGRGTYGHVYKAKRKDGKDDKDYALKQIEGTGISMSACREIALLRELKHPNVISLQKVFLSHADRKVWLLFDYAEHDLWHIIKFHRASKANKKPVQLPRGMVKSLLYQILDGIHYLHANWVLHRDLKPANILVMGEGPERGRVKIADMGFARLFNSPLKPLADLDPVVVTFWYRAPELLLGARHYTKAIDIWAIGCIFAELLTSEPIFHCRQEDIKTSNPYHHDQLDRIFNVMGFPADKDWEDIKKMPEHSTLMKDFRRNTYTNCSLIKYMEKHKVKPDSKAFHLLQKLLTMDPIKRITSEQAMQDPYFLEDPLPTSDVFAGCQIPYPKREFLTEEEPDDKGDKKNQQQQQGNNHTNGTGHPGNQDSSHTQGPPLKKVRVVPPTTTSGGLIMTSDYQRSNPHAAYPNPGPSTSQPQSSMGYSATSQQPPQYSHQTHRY
T1 sequence (P24863 whole entry, further chain): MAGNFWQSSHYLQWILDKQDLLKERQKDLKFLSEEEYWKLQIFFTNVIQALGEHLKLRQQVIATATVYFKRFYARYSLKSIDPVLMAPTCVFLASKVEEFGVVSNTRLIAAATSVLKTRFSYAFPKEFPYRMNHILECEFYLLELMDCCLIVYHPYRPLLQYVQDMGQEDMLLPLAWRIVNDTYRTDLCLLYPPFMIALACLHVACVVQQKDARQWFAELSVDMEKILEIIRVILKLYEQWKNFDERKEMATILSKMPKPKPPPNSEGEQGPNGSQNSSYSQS
Sequence of Receptor-type tyrosine-protein kinase FLT3 (Homo sapiens) (P36888 whole entry): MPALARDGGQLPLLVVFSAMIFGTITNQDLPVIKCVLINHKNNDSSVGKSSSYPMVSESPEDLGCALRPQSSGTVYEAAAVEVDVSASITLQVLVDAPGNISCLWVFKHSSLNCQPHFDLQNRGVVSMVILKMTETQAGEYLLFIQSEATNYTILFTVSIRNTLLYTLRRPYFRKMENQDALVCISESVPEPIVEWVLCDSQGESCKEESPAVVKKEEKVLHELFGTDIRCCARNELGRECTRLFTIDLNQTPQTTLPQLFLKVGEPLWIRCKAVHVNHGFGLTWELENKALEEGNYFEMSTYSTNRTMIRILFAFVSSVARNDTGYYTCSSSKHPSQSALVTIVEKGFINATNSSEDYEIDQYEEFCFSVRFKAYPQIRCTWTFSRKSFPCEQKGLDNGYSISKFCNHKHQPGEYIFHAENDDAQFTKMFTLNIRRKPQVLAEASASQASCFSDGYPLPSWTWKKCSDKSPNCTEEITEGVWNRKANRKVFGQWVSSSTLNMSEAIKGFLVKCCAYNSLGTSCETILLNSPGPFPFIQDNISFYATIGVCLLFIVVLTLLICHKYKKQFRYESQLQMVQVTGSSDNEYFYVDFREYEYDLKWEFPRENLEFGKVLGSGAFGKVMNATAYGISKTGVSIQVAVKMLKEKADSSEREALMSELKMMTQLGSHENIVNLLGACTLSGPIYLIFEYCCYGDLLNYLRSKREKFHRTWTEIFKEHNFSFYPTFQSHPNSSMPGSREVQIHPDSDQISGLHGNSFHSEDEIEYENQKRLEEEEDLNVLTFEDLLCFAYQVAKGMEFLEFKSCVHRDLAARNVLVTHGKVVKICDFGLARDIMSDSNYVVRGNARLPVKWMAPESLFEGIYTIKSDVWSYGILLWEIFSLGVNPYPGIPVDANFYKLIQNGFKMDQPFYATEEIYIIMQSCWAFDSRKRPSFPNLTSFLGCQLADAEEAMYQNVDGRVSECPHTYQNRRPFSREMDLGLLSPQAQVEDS
Sequence of Mitogen-activated protein kinase kinase kinase 19 (Homo sapiens) (Q56UN5 whole entry): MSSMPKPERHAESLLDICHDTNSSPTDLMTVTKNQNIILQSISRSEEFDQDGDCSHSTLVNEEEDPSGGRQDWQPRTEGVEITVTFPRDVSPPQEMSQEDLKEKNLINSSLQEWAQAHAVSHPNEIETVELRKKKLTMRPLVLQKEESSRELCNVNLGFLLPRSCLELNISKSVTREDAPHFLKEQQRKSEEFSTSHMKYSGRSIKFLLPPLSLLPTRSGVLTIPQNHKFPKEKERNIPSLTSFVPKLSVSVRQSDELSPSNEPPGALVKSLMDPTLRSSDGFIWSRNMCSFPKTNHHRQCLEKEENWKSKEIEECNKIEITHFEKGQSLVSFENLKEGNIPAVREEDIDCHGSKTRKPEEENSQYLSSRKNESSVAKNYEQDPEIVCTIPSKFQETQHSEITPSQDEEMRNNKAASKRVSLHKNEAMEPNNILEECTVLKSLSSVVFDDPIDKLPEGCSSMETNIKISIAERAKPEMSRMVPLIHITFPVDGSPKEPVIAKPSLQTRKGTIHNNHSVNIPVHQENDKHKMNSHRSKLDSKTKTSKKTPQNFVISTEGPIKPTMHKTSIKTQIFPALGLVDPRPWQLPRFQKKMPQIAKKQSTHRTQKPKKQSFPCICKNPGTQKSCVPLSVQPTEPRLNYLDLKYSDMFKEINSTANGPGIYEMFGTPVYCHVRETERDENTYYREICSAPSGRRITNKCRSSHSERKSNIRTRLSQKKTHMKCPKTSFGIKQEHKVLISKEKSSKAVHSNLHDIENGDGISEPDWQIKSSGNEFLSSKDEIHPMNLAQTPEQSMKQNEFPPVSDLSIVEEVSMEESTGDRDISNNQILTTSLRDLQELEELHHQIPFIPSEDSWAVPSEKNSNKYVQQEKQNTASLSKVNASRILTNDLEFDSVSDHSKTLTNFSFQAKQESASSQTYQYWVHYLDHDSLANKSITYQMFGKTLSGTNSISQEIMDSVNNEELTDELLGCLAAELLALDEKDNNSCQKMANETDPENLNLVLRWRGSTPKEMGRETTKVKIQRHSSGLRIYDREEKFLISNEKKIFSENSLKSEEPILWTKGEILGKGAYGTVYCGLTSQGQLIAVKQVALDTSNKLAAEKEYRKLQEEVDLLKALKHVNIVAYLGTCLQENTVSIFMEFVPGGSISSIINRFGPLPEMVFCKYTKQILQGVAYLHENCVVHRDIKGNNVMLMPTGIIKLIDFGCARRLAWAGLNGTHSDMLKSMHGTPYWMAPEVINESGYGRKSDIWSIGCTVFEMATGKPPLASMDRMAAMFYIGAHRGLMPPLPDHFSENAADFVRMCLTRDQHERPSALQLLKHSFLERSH
Sequence of Cyclin-C/Cyclin-dependent kinase 19 (Q9BWU1 whole entry): as the sequence (Q9BWU1 whole entry) above
Sequence of Cyclin-C/Cyclin-dependent kinase 19 (P24863 whole entry, further chain): as the sequence (P24863 whole entry, further chain) above
Sequence of Cyclin-dependent kinase 8 (P49336 whole entry): as the sequence (P49336 whole entry) above
Sequence of Cyclin-dependent kinase 8/Cyclin-C (Q8R3L8 whole entry): as the sequence (P49336 whole entry) above, with Q82L, D366E, N372T, S394G, T396A counted along it
Sequence of Cyclin-dependent kinase 8/Cyclin-C (Q62447 whole entry, further chain): as the sequence (P24863 whole entry, further chain) above, with A112T, M171V counted along it

The IC50 is the midpoint of a concentration-inhibition curve. Usually GI50 stands for the concentration giving 50% growth inhibition. A low value points to more potent growth inhibition. Regarding `Cc1c(Br)c(Br)c2c3c1nc(N1CCNCC1)n3CCC2` [SEL-120 FREE BASE], the values for the IC50 (on CDK8/Cyclin C [1]; in [4]) were 4 nM and 10 nM, respectively. For the same compound, the GI50 (in test [2]; in test [3]; in the test with OCI-AML-3; in test [5]; in the test with KG-1; with OCI-AML2) was under 1000 nM throughout. For the same compound, the concentration for 50% growth inhibition (GI50) in the test on MV4-11 [6] and with HL-60 was under 1000 nM in each case.

Usually EC50 stands for the concentration needed to bring the measured effect to its halfway point. With `CC1CCc2nc(N)c(C#N)c(-c3cccnc3)c2C1` (stereo unspecified), the EC50 in test [7] is 1400 nM. The IC50 in test [8] was 500 nM; in test [9] it was 30000 nM.

On to `CN(C)[C@H]1C[C@@]23CC[C@@]4(O2)C(=CC[C@]2(C)[C@@H](c5ccc6ccncc6c5)CC[C@H]24)C=C3[C@@H](O)[C@@H]1O`, for which the GI50 in the test with HCT-116 [10] was over 1000 nM; in the test on SET-2 [11], 4 nM; in test [12] it was 7 nM; in the test on MOLM-14, 5 nM; in the test with MEG-01, 9 nM; in the test with RS4-11, 3 nM. The GI50 was 360 nM in the test on TF-1, 1 nM in test [14] and 6 nM with MV4-11 [18]. In addition, the results for the IC50 in [13], in test [15] and in [17] were 10 nM, 220 nM and 250 nM, respectively. Besides, the inhibition in vivo at 0.16 mg/kg with SET-2 [16] was 70%.

As a reminder, the inhibition is the change of the read-out against control, counted positive when it falls. Take `CCN1CCN(Cc2ccc(NC(=O)N[C@@H]3CCN(c4ccnc(NC)n4)C3)cc2C(F)(F)F)CC1`: in test [19], the inhibition was determined as 74%. Further, in the test with HCT-116 [20], the IC50 is over 10000 nM.

Turning to `N#Cc1ccc2ncnc(NCCc3ccccc3)c2c1`, the IC50 at CDK8/Cyclin C [21] worked out at 280 nM.

In the case of `CN1CCN(C(=O)c2ccc3cc(CCNc4ncnc5ccc(C#N)cc45)ccc3c2)CC1`, the inhibition in test [22] amounted to 59%; in test [23], 69%.
